Results published in ChEMBL document CHEMBL1135623, “Synthesis and pharmacological evaluation of 1-[(1,2-diphenyl-1H-4-imidazolyl)methyl]-4-phenylpiperazines with clozapine-like mixed activities at dopamine D(2), serotonin, and GABA(A) receptors” (J Med Chem, 2002).

How the values were obtained:
[1] = target: 5-hydroxytryptamine receptor 2A (Rattus norvegicus, UniProt P14842); assay: In vitro binding affinity for serotonin 5-hydroxytryptamine 2A receptor of rat cerebral cortex using [3H]ketanserin as radioligand; type: tissue-based
Sequence of 5-hydroxytryptamine receptor 2A (P14842 whole entry): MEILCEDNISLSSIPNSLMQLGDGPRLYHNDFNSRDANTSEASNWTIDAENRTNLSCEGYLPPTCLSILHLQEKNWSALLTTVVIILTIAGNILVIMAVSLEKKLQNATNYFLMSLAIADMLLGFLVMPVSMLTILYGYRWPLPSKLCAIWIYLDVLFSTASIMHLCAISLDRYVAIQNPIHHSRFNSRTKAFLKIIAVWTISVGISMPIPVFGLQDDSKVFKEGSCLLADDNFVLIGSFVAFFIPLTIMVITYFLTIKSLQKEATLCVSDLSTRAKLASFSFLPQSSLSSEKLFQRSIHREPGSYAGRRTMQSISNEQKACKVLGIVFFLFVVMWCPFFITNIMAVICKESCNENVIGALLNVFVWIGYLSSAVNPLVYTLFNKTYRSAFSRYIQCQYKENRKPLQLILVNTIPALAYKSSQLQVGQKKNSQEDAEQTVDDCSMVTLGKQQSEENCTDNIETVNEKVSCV

[2] = target: T1, 5-hydroxytryptamine receptor 1A (Rattus norvegicus, UniProt P19327); assay: In vitro binding affinity for serotonin 5-hydroxytryptamine 1A receptor fof rat cerebral cortex using [3H]8-OH-DPAT as radioligand; type: tissue-based
T1 sequence (P19327 whole entry): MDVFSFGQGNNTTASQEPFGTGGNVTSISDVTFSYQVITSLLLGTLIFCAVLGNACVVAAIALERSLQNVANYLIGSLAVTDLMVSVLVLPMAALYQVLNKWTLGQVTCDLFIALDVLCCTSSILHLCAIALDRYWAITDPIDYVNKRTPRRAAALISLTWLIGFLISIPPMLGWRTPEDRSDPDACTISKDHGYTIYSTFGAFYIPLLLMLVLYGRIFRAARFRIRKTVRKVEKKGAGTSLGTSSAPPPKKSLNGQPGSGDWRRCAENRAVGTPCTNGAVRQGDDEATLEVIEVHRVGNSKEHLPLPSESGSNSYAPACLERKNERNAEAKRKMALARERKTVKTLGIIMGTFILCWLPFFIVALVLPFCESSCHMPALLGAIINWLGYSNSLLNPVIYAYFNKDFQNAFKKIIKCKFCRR

Structure (SMILES)	IC50 [1] [nM]	IC50 [2] [nM]
COc1cccc(N2CCN(Cc3cn(-c4ccccc4)c(-c4ccccc4)n3)CC2)c1	2340	271
c1ccc(-c2nc(CN3CCN(c4ccccn4)CC3)cn2-c2ccccc2)cc1	2020	197
Clc1ccc(N2CCN(Cc3cn(-c4ccccc4)c(-c4ccccc4)n3)CC2)cc1	315	1890
Fc1ccccc1N1CCN(Cc2cn(-c3ccccc3)c(-c3ccccc3)n2)CC1	25.3	332
CN1CCN(Cc2cn(-c3ccccc3)c(-c3ccccc3)n2)CC1	> 10000	
COc1ccccc1N1CCN(Cc2cn(-c3ccc(F)cc3)c(-c3ccc(F)cc3)n2)CC1	259	171
c1ccc(-c2nc(CN3CCN(c4ccccc4)CC3)cn2-c2ccccc2)cc1	> 10000	2700
CN(C)CCCSc1ccccc1NC(=O)/C=C/c1ccccc1 [CINANSERIN]	14.8	
COc1ccc(N2CCN(Cc3cn(-c4ccccc4)c(-c4ccccc4)n3)CC2)cc1	1920	8440
c1ccc(CN2CCN(Cc3cn(-c4ccccc4)c(-c4ccccc4)n3)CC2)cc1	2170	1130
FC(F)(F)c1cccc(N2CCN(Cc3cn(-c4ccccc4)c(-c4ccccc4)n3)CC2)c1	2130	206
FC(F)(F)c1ccc(N2CCN(Cc3cn(-c4ccccc4)c(-c4ccccc4)n3)CC2)cc1	1510	224
Fc1ccc(N2CCN(Cc3cn(-c4ccccc4)c(-c4ccccc4)n3)CC2)cc1	501	806
Clc1ccccc1N1CCN(Cc2cn(-c3ccccc3)c(-c3ccccc3)n2)CC1	142	255
Clc1cccc(N2CCN(Cc3cn(-c4ccccc4)c(-c4ccccc4)n3)CC2)c1	717	166
CCOc1ccccc1N1CCN(Cc2cn(-c3ccc(F)cc3)c(-c3ccc(F)cc3)n2)CC1		51.9
Fc1ccc(-c2nc(CN3CCN(c4ccccc4)CC3)cn2-c2ccc(F)cc2)cc1	783	525
CCOc1ccccc1N1CCN(Cc2cn(-c3ccccc3)c(-c3ccccc3)n2)CC1	172	56.9
COc1ccccc1N1CCN(Cc2cn(-c3ccccc3)c(-c3ccccc3)n2)CC1	131	
